{
  "source": "PubChem BioAssay (NCI)",
  "test_in_all_cases": "growth of human tumour cells (NCI), 48 h",
  "key": {"786-0 renal": {"test_system": "786-0 renal"}, "OVCAR-5 ovarian": {"test_system": "OVCAR-5 ovarian"}, "NCI-H23 lung": {"test_system": "NCI-H23 lung"}, "SK-MEL-2 melanoma": {"test_system": "SK-MEL-2 melanoma"}, "SN12C renal": {"test_system": "SN12C renal"}, "UACC-62 melanoma": {"test_system": "UACC-62 melanoma"}, "MOLT-4 leukemia": {"test_system": "MOLT-4 leukemia"}, "BT-549 breast": {"test_system": "BT-549 breast"}, "SW-620 colon": {"test_system": "SW-620 colon"}, "NCI-H522 lung": {"test_system": "NCI-H522 lung"}, "NCI-H460 lung": {"test_system": "NCI-H460 lung"}, "DU-145 prostate": {"test_system": "DU-145 prostate"}, "U251 CNS": {"test_system": "U251 CNS"}, "HCT-116 colon": {"test_system": "HCT-116 colon"}, "SNB-19 CNS": {"test_system": "SNB-19 CNS"}, "MDA-MB-435": {"test_system": "MDA-MB-435"}, "COLO 205 colon": {"test_system": "COLO 205 colon"}, "A498 renal": {"test_system": "A498 renal"}, "OVCAR-4 ovarian": {"test_system": "OVCAR-4 ovarian"}, "SR leukemia": {"test_system": "SR leukemia"}, "ACHN renal": {"test_system": "ACHN renal"}, "SF-295 CNS": {"test_system": "SF-295 CNS"}, "HCT-15 colon": {"test_system": "HCT-15 colon"}, "OVCAR-8 ovarian": {"test_system": "OVCAR-8 ovarian"}, "A549 NSCLC": {"test_system": "A549 NSCLC"}, "MCF7 breast": {"test_system": "MCF7 breast"}, "HCC-2998 colon": {"test_system": "HCC-2998 colon"}, "HOP-62 NSCLC": {"test_system": "HOP-62 NSCLC"}, "UACC-257 melanoma": {"test_system": "UACC-257 melanoma"}, "HS 578T breast": {"test_system": "HS 578T breast"}, "KM12 colon": {"test_system": "KM12 colon"}, "SK-MEL-28 melanoma": {"test_system": "SK-MEL-28 melanoma"}, "EKVX NSCLC": {"test_system": "EKVX NSCLC"}, "HOP-92 NSCLC": {"test_system": "HOP-92 NSCLC"}, "RXF 393 renal": {"test_system": "RXF 393 renal"}, "NCI/ADR-RES ovarian": {"test_system": "NCI/ADR-RES ovarian"}, "MDA-N": {"test_system": "MDA-N"}, "MDA-MB-231 breast": {"test_system": "MDA-MB-231 breast"}, "HT29 colon": {"test_system": "HT29 colon"}, "RPMI-8226 leukemia": {"test_system": "RPMI-8226 leukemia"}, "T-47D breast": {"test_system": "T-47D breast"}, "K-562 leukemia": {"test_system": "K-562 leukemia"}, "SF-539 CNS": {"test_system": "SF-539 CNS"}, "SK-OV-3 ovarian": {"test_system": "SK-OV-3 ovarian"}, "CCRF-CEM leukemia": {"test_system": "CCRF-CEM leukemia"}, "UO-31 renal": {"test_system": "UO-31 renal"}, "CAKI-1 renal": {"test_system": "CAKI-1 renal"}, "SF-268 CNS": {"test_system": "SF-268 CNS"}, "TK-10 renal": {"test_system": "TK-10 renal"}, "M14 melanoma": {"test_system": "M14 melanoma"}},
  "note": "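Step 1: Grow cells in 96-well plates. Step 2: Expose to compound for 48 hours at 5 concentrations. Step 3: Interpolate endpoints linearly; if unreached, use highest concentration. The concentration for full growth arrest is given as TGI.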",
  "data": [
    {"smiles": "CCN(CC)CCNC(=O)c1cc2cc(NC(=O)c3cc4cc(N)ccc4[nH]3)ccc2[nH]1", "values": [
      {"measurement": "TGI", "setting": "786-0 renal", "value": "> 100", "unit": "µM"},
      {"measurement": "TGI", "setting": "OVCAR-5 ovarian", "value": "> 100", "unit": "µM"},
      {"measurement": "TGI", "setting": "NCI-H23 lung", "value": "> 100", "unit": "µM"},
      {"measurement": "TGI", "setting": "SK-MEL-2 melanoma", "value": "> 100", "unit": "µM"},
      {"measurement": "TGI", "setting": "SN12C renal", "value": "> 100", "unit": "µM"},
      {"measurement": "TGI", "setting": "UACC-62 melanoma", "value": 59.3, "unit": "µM"},
      {"measurement": "TGI", "setting": "MOLT-4 leukemia", "value": 48.5, "unit": "µM"},
      {"measurement": "TGI", "setting": "BT-549 breast", "value": "> 100", "unit": "µM"},
      {"measurement": "TGI", "setting": "SW-620 colon", "value": "> 100", "unit": "µM"},
      {"measurement": "TGI", "setting": "NCI-H522 lung", "value": 46.7, "unit": "µM"},
      {"measurement": "TGI", "setting": "NCI-H460 lung", "value": "> 100", "unit": "µM"},
      {"measurement": "TGI", "setting": "DU-145 prostate", "value": 47.1, "unit": "µM"},
      {"measurement": "TGI", "setting": "U251 CNS", "value": "> 100", "unit": "µM"},
      {"measurement": "TGI", "setting": "HCT-116 colon", "value": 79.7, "unit": "µM"},
      {"measurement": "TGI", "setting": "SNB-19 CNS", "value": "> 100", "unit": "µM"},
      {"measurement": "TGI", "setting": "MDA-MB-435", "value": 58, "unit": "µM"},
      {"measurement": "TGI", "setting": "COLO 205 colon", "value": 25.6, "unit": "µM"},
      {"measurement": "TGI", "setting": "A498 renal", "value": "> 100", "unit": "µM"},
      {"measurement": "TGI", "setting": "OVCAR-4 ovarian", "value": 27.7, "unit": "µM"},
      {"measurement": "TGI", "setting": "SR leukemia", "value": 55, "unit": "µM"},
      {"measurement": "TGI", "setting": "ACHN renal", "value": "> 100", "unit": "µM"},
      {"measurement": "TGI", "setting": "SF-295 CNS", "value": "> 100", "unit": "µM"},
      {"measurement": "TGI", "setting": "HCT-15 colon", "value": "> 100", "unit": "µM"},
      {"measurement": "TGI", "setting": "OVCAR-8 ovarian", "value": "> 100", "unit": "µM"},
      {"measurement": "TGI", "setting": "A549 NSCLC", "value": "> 100", "unit": "µM"},
      {"measurement": "TGI", "setting": "MCF7 breast", "value": 36.8, "unit": "µM"},
      {"measurement": "TGI", "setting": "HCC-2998 colon", "value": 36.3, "unit": "µM"},
      {"measurement": "TGI", "setting": "HOP-62 NSCLC", "value": "> 100", "unit": "µM"},
      {"measurement": "TGI", "setting": "UACC-257 melanoma", "value": "> 100", "unit": "µM"},
      {"measurement": "TGI", "setting": "HS 578T breast", "value": "> 100", "unit": "µM"},
      {"measurement": "TGI", "setting": "KM12 colon", "value": 28, "unit": "µM"},
      {"measurement": "TGI", "setting": "SK-MEL-28 melanoma", "value": "> 100", "unit": "µM"},
      {"measurement": "TGI", "setting": "EKVX NSCLC", "value": "> 100", "unit": "µM"},
      {"measurement": "TGI", "setting": "HOP-92 NSCLC", "value": "> 100", "unit": "µM"},
      {"measurement": "TGI", "setting": "RXF 393 renal", "value": 61.3, "unit": "µM"},
      {"measurement": "TGI", "setting": "NCI/ADR-RES ovarian", "value": "> 100", "unit": "µM"},
      {"measurement": "TGI", "setting": "MDA-N", "value": "> 100", "unit": "µM"},
      {"measurement": "TGI", "setting": "MDA-MB-231 breast", "value": 73.4, "unit": "µM"},
      {"measurement": "TGI", "setting": "HT29 colon", "value": "> 100", "unit": "µM"},
      {"measurement": "TGI", "setting": "RPMI-8226 leukemia", "value": 74.5, "unit": "µM"},
      {"measurement": "TGI", "setting": "T-47D breast", "value": "> 100", "unit": "µM"},
      {"measurement": "TGI", "setting": "K-562 leukemia", "value": "> 100", "unit": "µM"},
      {"measurement": "TGI", "setting": "SF-539 CNS", "value": 85.3, "unit": "µM"},
      {"measurement": "TGI", "setting": "SK-OV-3 ovarian", "value": "> 100", "unit": "µM"},
      {"measurement": "TGI", "setting": "CCRF-CEM leukemia", "value": 38.9, "unit": "µM"},
      {"measurement": "TGI", "setting": "UO-31 renal", "value": "> 100", "unit": "µM"},
      {"measurement": "TGI", "setting": "CAKI-1 renal", "value": "> 100", "unit": "µM"},
      {"measurement": "TGI", "setting": "SF-268 CNS", "value": "> 100", "unit": "µM"},
      {"measurement": "TGI", "setting": "TK-10 renal", "value": "> 100", "unit": "µM"},
      {"measurement": "TGI", "setting": "M14 melanoma", "value": 77.1, "unit": "µM"}
    ]}
  ]
}
